Patent US20220288058A1, “COMBINATION THERAPY USING A MALT1 INHIBITOR AND A BTK INHIBITOR” (Janssen Pharmaceutica NV, priority 2021, published 2022)

Experiments:
OCI-Ly10 = experiment: Proliferation of ABC-DLBCL cell lines (IC50); type: cell-based; conditions: Homo sapiens, OCI-Ly10; read-out: IC50, inhibition of proliferation
BTK protein = molecular target: T1, BTK protein (Homo sapiens, UniProt Q06187); experiment: Study 1: BTK occupancy assay (ELISA) in OCI-LY10 DLBCL tumor lysates of NSG mice; type: in vivo, mouse
T1 construct: measuring the amount of free BTK protein in OCI-LY10 DLBCL tumor lysates of mice treated with various dosing concentrations of Compound B; endogenous in cells; host or cells: OCI-LY10 ABC-DLBCL xenograft tumours grown SC in female NSG mice (tumour lysates)
T1 sequence (Q06187 whole entry): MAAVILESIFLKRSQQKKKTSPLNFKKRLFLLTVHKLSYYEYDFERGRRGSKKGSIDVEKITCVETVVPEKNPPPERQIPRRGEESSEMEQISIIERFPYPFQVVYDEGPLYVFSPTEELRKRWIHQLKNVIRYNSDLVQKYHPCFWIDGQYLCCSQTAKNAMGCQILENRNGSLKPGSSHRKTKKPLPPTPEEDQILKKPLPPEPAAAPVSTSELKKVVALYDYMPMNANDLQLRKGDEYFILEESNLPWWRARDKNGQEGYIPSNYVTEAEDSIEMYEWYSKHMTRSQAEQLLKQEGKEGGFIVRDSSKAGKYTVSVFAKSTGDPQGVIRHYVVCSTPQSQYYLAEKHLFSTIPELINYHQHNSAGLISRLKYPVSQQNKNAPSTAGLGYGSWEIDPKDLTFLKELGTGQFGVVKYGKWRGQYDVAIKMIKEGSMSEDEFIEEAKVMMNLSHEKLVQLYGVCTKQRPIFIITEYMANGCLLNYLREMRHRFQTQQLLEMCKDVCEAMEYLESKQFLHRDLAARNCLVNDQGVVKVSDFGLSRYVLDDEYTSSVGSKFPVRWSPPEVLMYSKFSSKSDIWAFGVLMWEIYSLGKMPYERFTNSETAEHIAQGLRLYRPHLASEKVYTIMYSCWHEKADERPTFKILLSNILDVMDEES
Description: In Study 1, 5×10^6 OCI-LY10 cells in PBS containing 50% Matrigel™ were injected subcutaneously (SC) into the right hind flank of female NSG mice. Tumor growth was measured over time and once tumors reached volumes of approximately 525 mm^3, mice were randomized in groups of 15 and treated orally with a single dose of Compound B according to treatment schedule (see Table 4). Blood was collected serially by mandibular vein sampling from 5 animals per time point per group to determine circulating compound concentration and IL10 levels at 2, 4, 8, 12, 16, and 24 hours post single dose. Blood was harvested in EDTA and plasma was obtained via centrifugation at 3000 rpm for 10 minutes. In addition, tumor samples were harvested from 5 animals per timepoint per treatment group for BTK occupancy studies at 4, 12, and 24 hours post single dose.
Compound B is a covalent orally bioavailable inhibitor binding BTK irreversibly, allowing us to evaluate the duration of signaling shutdown and occupancy of BTK protein after compound administration considering compound binding to BTK as well as synthesis rate of new BTK protein. Target engagement was determined by measuring the amount of free BTK protein in OCI-LY10 DLBCL tumor lysates of mice treated with various dosing concentrations of Compound B using a BTK occupancy assay (ELISA assay format). A covalent BTK inhibitor probe, chemically linked to biotin (CNX-500 Probe), was incubated in PBS/BT (PBS+1% BSA+0.05% tween-20) with tumor lysate for 1 hour at 28° C. Incubated BTK standards and samples were transferred to a streptavidin-coated 96-well plates and mixed while shaking for 30 minutes at RT. The BTK-antibody was then added and incubated overnight at 4° C. After washing, goat anti-mouse-HRP was added and incubated for 1 hour at RT. The ELISA was developed with addition of tetramethyl benzidine (TMB) followed by sulfuric acid (stop solution) and read at optical density 450 nm on Envision device.

[1] = tested on: OCI-LY10 human DLBCL xenografts; experiment: Study 3: combination efficacy (Compound B QD + Compound A BID), OCI-LY10 xenografts in NSG mice; type: in vivo, mouse; conditions: Compound B 30 mg/kg QD
Description: Following early animal dropouts in Study 2 due to tumor progression (metastasis and hindlimb paralysis), NSG female mice in Study 3 and Study 4 were injected SC into the right flank with a lower cell number (1×10^6 OCI-LY10 cells) in PBS containing 50% Matrigel™. On day 35 (Study 3) or day 32 (Study 4), mice were randomized based on tumor volume (see Table 4) and dosed orally QD day with Compound B and BID with Compound A (Study 3) or BID for both compounds (Study 4) with various dose concentrations according to treatment schedule above (see Table 4) for a period of 21 days.
Tumor volume in SC models was calculated using the formula: tumor volume (mm^3)=(D×d^2/2); where “D” represents the larger diameter and “d” the smaller diameter of the tumor as determined by calliper measurements. Tumor volume data was graphed as the mean tumor volume f SEM.
The percent ΔTGI was defined as the difference between mean tumor burden of the treatment and control groups, calculated using the following formula: ([(TVc−TVc0)−(TVt−TVt0)]/(TVc−TVc0))×100, where “TVc” is the mean tumor burden of a given control group, “TVc0” is the mean initial tumor burden of a given control group, “TVt” is the mean tumor burden of the treatment group, and “TVt0” is the mean initial tumor burden of the treatment group. The percent tumor growth inhibition (TGI) was defined as the difference between mean tumor volumes of the treated and control groups, calculated as: ((TVc−TVt)/TVc)×100 where “TVc” is the mean tumor volume of the control group and “TVt” is the mean tumor volume of the treatment group. […]
Tumor regression was calculated when mean tumor burden in treated group was smaller than the tumor burden at start of treatment of the same treated group. The % Tumor Regression (TR), quantified to reflect the treatment-related reduction of tumor volume as compared to baseline independent of the control group, was calculated using the following formula: % TR=(1-mean (TVti/TVt0i))×100 where “TVti” is the tumor burden of individual animals in a treatment group, and “TVt0i” is the initial tumor burden of the animal. […]

With `C=CC(=O)N[C@H]1CCC[C@H]1NC(=O)c1sc2nccc3c2c1NC(=O)N3c1cnc(CC(C)C)cc1C` (atropisomer, axis not shown) [Compound B, N-((1R,2S)-2-acrylamidocyclopentyl)-5-(S)-(6-isobutyl-4-methylpyridin-3-yl)-4-oxo-4,5-dihydro-3H-1-thia-3,5,8-triazaacenaphthylene-2-carboxamide] the IC50 (OCI-Ly10) was 0.018 µM, the “BTK occupancy in tumor lysates” value (BTK protein; 1 mg/kg single dose) was “No BTK occupancy” and the “BTK occupancy in tumor lysates” value (BTK protein; 3 mg/kg single dose) was “No BTK occupancy”. The “decrease in unoccupied (free) BTK in tumors” value (BTK protein; Compound B at 1, 3, 10, 30, or 100 mg/kg single dose, maximal at ≥ 30 mg/kg, sustained through 24 hours) was “Dose-and time-dependent”, the receptor occupancy at 10 mg/kg (BTK protein; OCI-Ly10, 4 hours after dosing) was 54% and the receptor occupancy at 30 mg/kg (BTK protein; OCI-Ly10, 4 hours after dosing) was 90%. For the same compound, the receptor occupancy at 100 mg/kg (BTK protein; OCI-Ly10, 4 hours after dosing) was 95%, the receptor occupancy at 10 mg/kg (BTK protein; OCI-Ly10, 12 hours) was 71% and the receptor occupancy at 30 mg/kg (BTK protein; OCI-Ly10, 12 hours) was 94%. The receptor occupancy at 100 mg/kg (BTK protein; OCI-Ly10, 12 hours) was 96%, the receptor occupancy at 10 mg/kg (BTK protein; OCI-Ly10, 24 hours) was 70% and the receptor occupancy at 30 mg/kg (BTK protein; OCI-Ly10, 24 hours) was 91%. The receptor occupancy at 100 mg/kg (BTK protein; OCI-Ly10, 24 hours) was 85%, the “BTK occupancy in tumors” value (BTK protein; single dose as low as 30 mg/kg, effects lasting up to 24 hours) was “complete BTK occupancy” and the TGI ([1]; Study 3, day 53) was 50%. For the same compound, the ΔTGI ([1]; Study 3, day 53) was 65% and the “animals removed due to clinical signs of tumor progression” value ([1]; Study 3) was 1.
